Data from patent publication US10532106B2 (priority 2014, dated 2020).
Entries after “also recorded” stand apart in the source; their conditions may differ. Numbered stars: 1 amine (or outer) side, 2 acyl side, 3 side chain; on linkers, the order of the positions; unused ones are H or OH. Bridge positions count the residues as written; N and C are the ends. Square brackets hold non-standard residues; d marks the D form. Peptide text beside a SMILES is read from it. * marks the point of attachment. X1 = COc1cc2cc(c1Cl)N(C)C(=O)C[C@H](OC(=O)[C@H](C)N(C)C(=O)CCC(C)(C)SSCCCC(=O)*)[C@]1(C)O[C@H]1[C@H](C)[C@@H]1C[C@@](O)(NC(=O)O1)[C@H](OC)/C=C/C=C(\C)C2; 1Nal = N[C@@H](Cc1cccc2ccccc12)C(=O)O; TBMB = c1c(C[*:1])cc(C[*:3])cc1C[*:2]; Tle = CC(C)(C)[C@H](N)C(=O)O; βAla = NCCC(=O)O; Sar = CNCC(=O)O

Tests used:
MT1-MMP hemopexin domain = target: T1, MT1-MMP hemopexin domain (Homo sapiens, UniProt P50281); test: Competition assay using fluorescence polarisation; format: binding
T1 construct: residues Cys319-Gly511 from the human gene; His6 (N); made in house; host or cells: HEK293 (transient), pEXPR-IBA42 vector
Summary of the method: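 Pre-formed PEX–fluorescent tracer complex titrated with non-fluoresceinated bicyclic peptide, which displaces tracer and lowers fluorescence polarisation. Competitor Kd obtained by fitting to the cubic-equation solution for tracer/titrant/protein equilibria, using tracer Kd from separate direct-binding FP.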

[1] = Degradation products in mouse plasma by MALDI-TOF (Method #1); format: in vitro ADME
Procedure: A rapid plasma stability profiling assay was developed that employed mass spectrometric detection (MALDI-TOF, Voyager DE, Applied Biosystems) of the parent mass as well as plasma-protease induced fragments thereof. By assessing the nature of the fragments, preferred cleavage sites can be determined. Here, a 1-1.5 mM peptide stock (in DMSO) was directly diluted into mouse/rat/human plasma (Sera labs, using citrate as anticoagulant), giving a final concentration of 50 μM peptide, and incubated for up to 48 hrs at 37° C. 5 μL samples were taken at appropriate time points and frozen at −80° C. For analysis, the samples were defrosted, mixed with 25 μL of 3:3:1 acetonitrile:methanol:water, and centrifuged at 13 k for 5 min. 5 μL of the peptide-containing supernatant was aspirated and mixed with 30 mM ammonium bicarbonate in a 1:1 mixture of acetonitrile:H2O. 1 μL of this was then spotted on the MALDI plate, dried, and Matrix (alpha-cyanocinnamic acid, Sigma, prepared as a saturated solution in 1:1 acetonitrile:water containing 0.1% trifluoroacetic acid) was layered over the sample (1 μL), dried and analysed using the MALDI TOF. […]
In an effort to understand the chemical nature of the degradation of 17-69-07-N219 in mouse plasma, samples were analysed using MALDI-TOF for any potential degradation products.

[2] = Plasma stability, quantitative LC-MS (Method #2); format: in vitro ADME, mouse; conditions: for t1/2 (hrs) (mouse plasma): Table 16, incubation up to 24 hrs, 4 μM
Procedure: (§1) […] […] Prior to LC-MS analysis, samples were defrosted, and mixed with 3 volumes (here, 120 μL) of 1:1 acetonitrile/MeOH water. The milky suspensions were centrifuged for 30 min at 13000 rpm, and peptide-containing supernatants were quantitated for doubly/triply charged species and MS/MS fragments thereof using a Waters Xevo TQ-D instrument, while using a plasma extracted standard curve of the same peptides as a reference. The half-life of degradation in plasma was used to assess the comparative stability of the molecules.

[3] = Plasma stability, quantitative LC-MS; format: in vitro ADME, rat; conditions: Table 16; incubation up to 24 hrs, 4 μM
[4] = plasma samples from mice dosed intravenously (0.5, 1 and 2 hrs); conditions: male CD1 mice, up to 2 hrs
[5] = plasma samples taken at t=0.5, 1 and 2 hrs from intravenously dosed mice; conditions: male CD1 mice, up to 2 hrs
[6] = target: T2, hemopexin domain of MT1-MMP (Homo sapiens, UniProt P50281); test: Hemopexin binding assay using the alpha screen; conditions: qualitative
T2 construct: residues Cys319-Gly511 from the human gene; His6 (N); made in house; host or cells: HEK293 (transient), pEXPR-IBA42 vector
Procedure: Employing previously established methods for generating bicyclic peptide phage libraries, selections were performed against the human hemopexin domain of MT1-MMP.
The most frequently occurring sequences were assayed for Hemopexin binding using the alpha screen, where all signals were high compared to the original 17-69 sequence (see Table 1 and FIG. 14): […]

mouse plasma = conditions: up to 24 hrs
human plasma = conditions: up to 24 hrs
rat plasma = conditions: up to 24 hrs
[7] = cited from earlier work
[8] = test system: human lung squamous cell carcinoma line EBC-1; test: Efficacy in EBC-1 xenograft mice; format: in vivo, mouse
Procedure: All BDCs containing the stabilised bicycle core sequence were tested for their efficacies in in vivo mouse xenograft models, using the human lung squamous cell carcinoma line EBC-1.
The area under the curve (AUC) of tumour volume over time and BDC was taken and plotted against the corresponding dose group (FIG. 13).

[9] = Plasma stability, quantitative LC-MS (Method #2); format: in vitro ADME, human; conditions: refers to Table 16
Procedure: as §1

[10] = Relative stability to DTT of Bicycle Drug Conjugates, quantitative LC-MS; format: physicochemical; conditions: Bicycle Drug Conjugates containing the disulphide linker
Procedure: The four BDCs were assessed for several in vitro parameters such as retention of potency to the human MT1-MMP hemopexin domain, stability in ex vivo mouse, rat and human plasma, and stability to reducing agents such as dithiothreitol.

Molecule: CC[C@H](C)[C@@H]1NC(=O)[C@H](CC(=O)O)NC(=O)[C@H](Cc2ccc(O)cc2)NC(=O)[C@H](Cc2ccccc2)NC(=O)[C@H](CC(=O)O)NC(=O)[C@H](CCC(=O)O)NC(=O)[C@@H]2CSCc3cc(cc(c3)CSC[C@H](NC(=O)[C@H](C)NC(=O)CN(C)C(=O)CN(C)C(=O)CN(C)C(=O)CN(C)C(=O)CN(C)C(=O)CN(C)C(=O)CN(C)C(=O)CN(C)C(=O)CN(C)C(=O)CN(C)C(=O)CN)C(=O)N[C@@H](Cc3ccc(O)cc3)C(=O)N[C@@H](CC(N)=O)C(=O)N[C@@H](CCC(=O)O)C(=O)N[C@@H](Cc3ccccc3)C(=O)NCC(=O)N2)CSC[C@@H](C(N)=O)NC1=O [17-69-07-N219, G-Sar10-A-(17-69-07)] (H-G[Sar][Sar][Sar][Sar][Sar][Sar][Sar][Sar][Sar][Sar]ACYNEFGCEDFYDIC-NH2; linker 13-19-26 via TBMB)
- species cross-reactivity (MT1-MMP hemopexin domain; murine, dog, cynomolgus and human MT1-MMP): fully cross reactive
- degradation products [1]: possible loss of tyrosine
- t1/2 (hrs) (mouse plasma) [2]: 3.9 ± 0.3 h
- half-life in mouse plasma ([2]; ex vivo mouse plasma at 37° C. (FIG. 1, FIG. 3A)): 6 h
- t1/2 (hrs) (rat plasma) [3]: 3.7 ± 0^ hrs

Molecule: Ac-CYNEFGCEDFYDIC
- fragment found [4]: excision of YNEFG in loop 1 (entire loop removed); also recorded: excision of EDFYDI in loop 2 (entire loop removed), minor
- fragment found [5]: excision of YNE in loop 1, major; also recorded: excision of YNEF in loop 1; also recorded: excision of YNEFG in loop 1 (the entire loop is removed); also recorded: excision of YD in loop 2, minor; also recorded: excision of FYD in loop 2, minor; also recorded: excision of YDI in loop 2, minor; also recorded: excision of EDFYDI in loop 2 (the entire loop is removed), minor

Molecule: CC[C@H](C)[C@@H]1NC(=O)[C@H](CC(=O)O)NC(=O)[C@H](Cc2ccc(O)cc2)NC(=O)[C@H](Cc2ccccc2)NC(=O)[C@H](CC(=O)O)NC(=O)[C@H](CCC(=O)O)NC(=O)[C@@H]2CSCc3cc(cc(c3)CSC[C@H](N)C(=O)N[C@@H](CCCCN)C(=O)N[C@@H](CC(N)=O)C(=O)N[C@@H](CCCNC(=N)N)C(=O)NCC(=O)N[C@@H](Cc3ccccc3)C(=O)NCC(=O)N2)CSC[C@@H](C(N)=O)NC1=O [Peptide 17-69] (H-CKNRGFGCEDFYDIC-NH2; linker 1-8-15 via TBMB)
- alpha screen binding signal [6]: qualitative binding to the target was verified

Molecule: βAla-Sar10-A-C(D-Ala)NE(1Nal)(D-Ala)CEDFYD(tBuGly)C
- not cleaved (mouse plasma): stable; t1/2 >36 hrs (mouse plasma)
- not cleaved (human plasma): stable; t1/2 >36 hrs (human plasma)
- not cleaved (rat plasma): stable; t1/2 >36 hrs (rat plasma)

Molecule: COc1cc2cc(c1Cl)N(C)C(=O)C[C@H](OC(=O)[C@H](C)N(C)C(=O)CCC(C)(C)SSCCCC(=O)NCCC(=O)N(C)CC(=O)N(C)CC(=O)N(C)CC(=O)N(C)CC(=O)N(C)CC(=O)N(C)CC(=O)N(C)CC(=O)N(C)CC(=O)N(C)CC(=O)N(C)CC(=O)N[C@@H](C)C(=O)N[C@H]1CSCc3cc4cc(c3)CSC[C@H](NC(=O)[C@@H](C)NC(=O)[C@H](Cc3cccc5ccccc35)NC(=O)[C@H](CCC(=O)O)NC(=O)[C@H](CC(N)=O)NC(=O)[C@@H](C)NC1=O)C(=O)N[C@@H](CCC(=O)O)C(=O)N[C@@H](CC(=O)O)C(=O)N[C@@H](Cc1ccccc1)C(=O)N[C@@H](Cc1ccc(O)cc1)C(=O)N[C@@H](CC(=O)O)C(=O)N[C@@H](C(C)(C)C)C(=O)N[C@H](C(N)=O)CSC4)[C@]1(C)O[C@H]1[C@H](C)[C@@H]1C[C@@](O)(NC(=O)O1)[C@H](OC)/C=C/C=C(\C)C2 [BT17BDC-19] ({X1-βAla}-[Sar][Sar][Sar][Sar][Sar][Sar][Sar][Sar][Sar][Sar]AC[dA]NE[1Nal][dA]CEDFYD[Tle]C-NH2; linker 12-18-25 via TBMB)
- Kd (MT1-MMP hemopexin domain; Table 16, footnote e: 17-69-07-N004 as tracer in FP competition, read-out: Kd (nM) (Hemopexin domain)): 0.5 nM
- reduction in sensitivity to a reducing agent such as dithiothreitol (compared to the non-hindered disulphide) ([7]; in the antibody drug conjugate context): 14 fold
- Relative Stability to DTT (ADC) ([7]; values relate to antibody drug conjugates containing the disulphide linker): 14
- efficacy, tumour clearance [8]: efficacious and cleared tumours in 9 days
- tolerability, body weight [8]: well tolerated at efficacious doses
- degradation half-life in human plasma [9]: > 14 h
- t1/2 (hrs) (mouse plasma) [2]: >36 h
- Relative Stability to DTT (BDC) [10]: 30
- t1/2 (hrs) (rat plasma) [3]: >36 h
